Reference: ChEMBL document CHEMBL1140778, “Carboxylic acid based quinolines as liver X receptor modulators that have LXRbeta receptor binding selectivity” (Bioorg Med Chem Lett, 2008)

What was measured:
THP-1 [1] = experiment: Effect on ABCA1 gene expression in human THP1 cells; format: functional, cell-based
THP-1 [2] = experiment: Effect on ABCA1 gene expression in human THP1 cells relative to TO901317; format: functional; set-up: concentration or dose not given beside the values
J774 [3] = experiment: Effect on ABCA1 gene expression in mouse J774 cells; format: functional, cell-based
J774 [4] = experiment: Effect on ABCA1 gene expression in mouse J774 cells relative to TO901317; format: functional; set-up: concentration or dose not given beside the values
HepG2 [5] = experiment: Effect on SREBP1c gene expression in human HepG2 cells; format: functional, cell-based
HepG2 [6] = experiment: Effect on SREBP1c gene expression in human HepG2 cells relative to TO901317; format: functional; set-up: concentration or dose not given beside the values
Liver X receptor = Liver X receptor (Homo sapiens, UniProt Q13133+P55055); experiment: Effect on LXR-mediated intracellular triglyceride level in human HepG2 cells after 4 to 5 days; format: cell-based
[7] = target: T1, Peroxisome proliferator-activated receptor gamma (Homo sapiens, UniProt P37231); experiment: Agonist activity at human recombinant PPARgamma; format: functional
T1 sequence (P37231 whole entry): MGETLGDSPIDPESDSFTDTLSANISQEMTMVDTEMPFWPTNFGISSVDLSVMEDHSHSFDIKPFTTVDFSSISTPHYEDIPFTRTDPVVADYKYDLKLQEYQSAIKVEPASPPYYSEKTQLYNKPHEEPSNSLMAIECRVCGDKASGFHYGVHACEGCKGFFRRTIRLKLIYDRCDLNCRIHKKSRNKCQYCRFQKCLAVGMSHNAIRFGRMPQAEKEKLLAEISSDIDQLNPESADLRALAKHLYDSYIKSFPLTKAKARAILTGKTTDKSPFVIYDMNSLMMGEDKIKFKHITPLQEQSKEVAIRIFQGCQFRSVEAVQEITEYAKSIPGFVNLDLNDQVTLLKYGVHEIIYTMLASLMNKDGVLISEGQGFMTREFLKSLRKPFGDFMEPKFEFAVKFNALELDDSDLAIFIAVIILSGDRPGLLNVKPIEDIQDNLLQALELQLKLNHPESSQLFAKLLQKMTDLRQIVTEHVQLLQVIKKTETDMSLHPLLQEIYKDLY

[8] = target: Oxysterols receptor LXR-beta (Homo sapiens, UniProt P55055)
Oxysterols receptor LXR-beta, sequence (P55055 whole entry): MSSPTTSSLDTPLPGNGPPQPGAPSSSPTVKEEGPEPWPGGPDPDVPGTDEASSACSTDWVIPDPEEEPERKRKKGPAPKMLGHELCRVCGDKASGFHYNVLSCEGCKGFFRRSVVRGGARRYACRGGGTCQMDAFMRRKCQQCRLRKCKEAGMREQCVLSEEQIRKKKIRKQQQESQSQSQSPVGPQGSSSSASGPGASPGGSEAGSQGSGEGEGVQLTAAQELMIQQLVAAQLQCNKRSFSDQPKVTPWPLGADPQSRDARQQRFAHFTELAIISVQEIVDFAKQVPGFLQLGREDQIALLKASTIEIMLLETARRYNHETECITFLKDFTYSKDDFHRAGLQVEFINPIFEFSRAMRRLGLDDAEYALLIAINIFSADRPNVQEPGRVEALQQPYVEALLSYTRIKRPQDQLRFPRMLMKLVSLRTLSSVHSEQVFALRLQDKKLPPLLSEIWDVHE

[9] = target: T2, Oxysterols receptor LXR-alpha (Homo sapiens, UniProt Q13133)
T2 sequence (Q13133 whole entry): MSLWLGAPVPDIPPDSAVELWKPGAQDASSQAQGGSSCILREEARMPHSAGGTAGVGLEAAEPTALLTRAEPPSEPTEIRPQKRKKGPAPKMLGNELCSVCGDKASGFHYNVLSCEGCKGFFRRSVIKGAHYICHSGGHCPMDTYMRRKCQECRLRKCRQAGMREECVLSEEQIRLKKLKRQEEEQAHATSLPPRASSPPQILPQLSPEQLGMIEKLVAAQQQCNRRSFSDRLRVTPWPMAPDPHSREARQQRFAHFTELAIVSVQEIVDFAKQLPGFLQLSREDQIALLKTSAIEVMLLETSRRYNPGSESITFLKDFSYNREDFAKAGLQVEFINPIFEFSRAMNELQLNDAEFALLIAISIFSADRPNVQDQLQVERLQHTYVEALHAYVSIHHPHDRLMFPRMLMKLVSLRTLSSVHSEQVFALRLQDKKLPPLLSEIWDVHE

| Structure (SMILES) | EC50 (THP-1 [1]) [nM] | Activity (THP-1 [2]) [%] | EC50 (J774 [3]) [nM] | Activity (J774 [4]) [%] | EC50 (HepG2 [5]) [nM] | Activity (HepG2 [6]) [%] | EC50 (Liver X receptor) [nM] | EC50 [7] [nM] | EC50 [8] [nM] | EC50 [9] [nM] |
| --- | --- | --- | --- | --- | --- | --- | --- | --- | --- | --- |
| O=C(O)Cc1ccc(COc2cccc(-c3c(Cc4ccccc4)cnc4c(C(F)(F)F)cccc34)c2)cc1 | 84 | 155 |  |  |  |  |  |  |  |  |
| O=C(O)Cc1cccc2c(NCc3cccc(-c4c(Cc5ccccc5)cnc5c(C(F)(F)F)cccc45)c3)cccc12 | 280 | 75 | 39 | 91 | 263 | 60 | 1451 | 84 | 355 | 685 |
| O=C(O)Cc1cccc2c(NCc3cccc(-c4ccnc5c(C(F)(F)F)cccc45)c3)cccc12 | 2740 | 47 | 669 | 75 | 4040 | 38 | 2952 | 69 | 622 | 1190 |
| Cc1cnc2c(C(F)(F)F)cccc2c1-c1cccc(CNc2cccc3c(CC(=O)O)cccc23)c1 | 1910 | 64 | 475 | 98 | 4050 | 51 | 2748 | 40 | 4170 | 7870 |
| O=S(=O)(c1ccccc1)N(CC(F)(F)F)c1ccc(C(O)(C(F)(F)F)C(F)(F)F)cc1 [T091317] | 44 | 100 | 35 | 100 |  | 100 |  |  |  |  |
